Test results from patent US8101764B2, “MCH receptor antagonists” (Eli Lilly and Company, priority 2006, dated 2012).
Counter-ions that a name gives are not always drawn.

Tests used:
[1] = biological target: T1, human MCHR1 (Homo sapiens, UniProt Q99705); assay: 125I-MCH competitive binding assay with clone 43 membranes; conditions: Ki from IC50 by Cheng-Prusoff
T1 construct: The full-length cDNA for human MCHR1 is cloned from a human adult brain cDNA library; expressed in transfected cells; host or cells: AV12 cells previously transfected with Gα15; membranes
Procedure: (§1) The full-length cDNA for human MCHR1 is cloned from a human adult brain cDNA library (Edge Biosystems, Cat. 38356) by standard polymerase chain reaction (PCR) methodology employing the following primers: sense, 5′-GCCACCATGGACCT GGAAGCCTCGCTGC-3′ (SEQ ID NO:1); anti-sense, 5′-[…]-3′ (SEQ ID NO:2). The PCR reaction is performed in a final volume of 50 μL containing 5 μL of a 10× stock solution of PCR buffer, 1 μL of 10 mM dNTP mixture (200 μM final), 2 μL of 50 mM Mg(SO4) (2 mM final), 0.5 μL of 20 μM solutions of each primer (0.2 μM final), 5 μL of template cDNA containing 0.5 ng DNA, 0.5 μL of Platinum Taq High Fidelity DNA polymerase (Gibco Life Technologies) and 36 μL of H2O. […]
(§2) In order to generate cell lines stably expressing MCHR1, subclone the insert into the Xba I and Not I sites of pcDNA(+)-3.1-neomycin (Invitrogen). […] The G418-resistant colonies are further selected for MCHR1 expression by measuring MCH-stimulated Ca^2+ transients with a fluorometric imaging plate reader (FLIPR, Molecular Devices). […]
Binding of compounds to MCHR1 is assessed in a competitive binding assay employing ^125I-MCH, compound and clone 43 membranes. […] Non-specific binding is assessed in the presence of 0.1 μM unlabeled MCH. Bound ^125I-MCH is determined by placing sealed plates in a Microbeta Trilux (Perkin Elmer Life and Analytical Sciences Inc.) and counting after a 12 h delay. […]

[2] = biological target: T1, human MCHR1; assay: Inhibition of MCH-stimulated GTPγ35S binding to clone 43 membranes (functional antagonism); assay type: biochemical; conditions: 10 nM MCH, Kb from IC50 by modified Cheng-Prusoff
Procedure: as §1, with “H2O. PCR amplification is performed on a Perkin Elmer 9600 thermocycler. Perform denaturation for 90 sec at 94° C., and repeat an amplification sequence consisting of 94° C. for 25 sec, 55° C. for 25 sec and 72° C. for […] 30 times, followed by a final elongation step at 72° C. for 10 min.” for “H2O.”
as §2

[3] = In vivo efficacy in diet-induced obese rats, oral gavage, body weight change over 3 days; conditions: 10 mg/Kg orally once a day for 3 days, diet-induced obese male Long-Evans rats
Procedure: Vehicle consisted of 10% acacia and 0.15% saccharin in water.
House animals individually in a temperature regulated room (24° C.) with a reverse 12 hour light/dark cycle (dark 10:00/22:00). Make water and food (Teklad 95217, Harlan, WI) available ad libitum. Dose compounds orally once a day before onset of dark for 3 days. Measure daily food intake and body weight change for the 3 day period. The compound of Example 5 produced an average body weight reduction of about 11 grams @ 10 mg/Kg versus vehicle control.

T1 sequence (Q99705 whole entry): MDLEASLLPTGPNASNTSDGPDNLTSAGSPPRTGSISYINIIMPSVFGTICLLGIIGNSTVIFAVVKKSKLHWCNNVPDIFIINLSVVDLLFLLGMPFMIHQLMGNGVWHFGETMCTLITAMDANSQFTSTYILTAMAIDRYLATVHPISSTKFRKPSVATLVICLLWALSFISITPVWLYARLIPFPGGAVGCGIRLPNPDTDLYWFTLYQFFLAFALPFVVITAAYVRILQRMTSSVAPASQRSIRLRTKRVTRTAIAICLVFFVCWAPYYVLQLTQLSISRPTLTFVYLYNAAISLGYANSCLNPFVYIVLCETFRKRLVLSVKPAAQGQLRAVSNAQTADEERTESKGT

| SMILES | Ki [1] | Kb [2] | average body weight reduction versus vehicle control [3] |
| --- | --- | --- | --- |
| CN(C)[C@@H]1CCN(c2ccc(-n3ccc4cc(-c5ccc(OC6CC6)cc5)sc4c3=O)cn2)C1 [Example 55, 2-(4-Cyclopropoxy-phenyl)-6-[6-(R)-(3-dimethylamino-pyrrolidin-1-yl)-pyridin-3-yl]-6H-thieno[2,3-c]pyridin-7-one, hydrochloride] | ~9 nM |  |  |
| CN(C)[C@@H]1CCN(c2ccc(N3CCc4cc(-c5ccc(Cl)cc5)sc4C3=O)cn2)C1.Cl [Example 5, 2-(4-Chloro-phenyl)-6-[6-((R)-3-dimethylamino-pyrrolidin-1-yl)-pyridin-3-yl]-5,6-dihydro-4H-thieno[2,3-c]pyridin-7-one, hydrochloride] |  | ~7 nM | about 11 grams |
